Experimental data taken from patent publication US20250099488A1, “ANTI-PARASITE COMPOUNDS” (AUSTRALIAN NATIONAL UNIVERSITY, priority 2022, published 2025).
Read-outs that look alike come from different tables or passages of the source.

What was measured:
[1] = tested on: chloroquine resistant P. falciparum strain C4_Dd2; test: Growth inhibition of chloroquine resistant P. falciparum strain; type: cell-based, Plasmodium falciparum; conditions: 72 hours, FIG. 21D; conjugate = BC75D
Description: (§1) Growth inhibition was investigated according to methods described by Smilkstein et al. (2004) with modifications by Spry et al. (2013). Compounds or solvent controls (DMSO, ethanol, or ethyl acetate) were serially diluted 2-fold across flat-bottom 96-well plates. Complete culture media without compound was used as a negative control. Chloroquine (100-200 nM) {Sigma C6628} was used as a positive control to determine background fluorescence. The parasitaemia of a culture containing predominantly ring stage parasites was counted by Giemsa smear. The parasitaemia was adjusted to 1% by addition of fresh uRBCs, and added to the plate at a final haematocrit of 1%, with 200 μL per well. The plates were incubated at 37° C. under humid microaerophilic conditions. After 72 hours (or the indicated timepoint), the plates were transferred to a −18° C. freezer to stop the assay and lyse cells. Plates were thawed and lysate was mixed 1:1 with SYBR Safe DNA Gel Stain {Invitrogen 33102}(final concentration 1/10000) diluted in lysis buffer (20 mM TRIS, 5 mM EDTA, 0.008% w/v Saponin, 0.08% w/v Triton-X 100, pH 7.5). Fluorescence was read at 490 nm excitation/520 nm emission on a FLUOstar Optima fluorescence plate reader {BMG Labtech}. […]

[2] = HEK293 cell viability assay (MTT); type: cell-based, human; conditions: human, 72 hours, FIG. 21E, conjugate = BC75D, read-out: IC50, HEK293 cytotoxicity
Description: HEK293 cell viability assays began with 5000 cells per well. 10 μg/mL cycloheximide was used as a no-growth control. Metabolic capacity (indicating viability) was measured by incubation with 0.45 mg/mL methylthiazolyldiphenyl-tetrazolium bromide (MTT; Sigma M2128) for two hours followed by crystal solubilisation in SDS.

[3] = tested on: P. falciparum infected red blood cells (iRBC) vs uninfected red blood cells (uRBC); test: Uptake of fluorescent cholesterol analogues into infected vs uninfected RBCs (flow cytometry, microscopy); type: cell-based, Plasmodium falciparum; conditions: 24 hrs incubation, ring-stage culture, cholesterol-depleted media
Description: (§2) For quantification, events were measured on a LSR II or LSRFortessa Flow Cytometer. NBD/BODIPY fluorescence was detected at 488 nm ex/530 nm em. Hoechst 33342 (Thermo Fisher) fluorescence was detected at 410 nm ex/450 nm em. Resorufin fluorescence was detected at 561 nm ex/610 nm em. Mitotracker Deep Red was detected at 633 nm ex/670 nm em. Dehydroergosterol was detected at 355 nm ex/450 nm em.
(§3) Data were initially processed using FlowJo. RBCs were gated on FSC and SCC. iRBCs (positive) and uRBCs (negative) were differentiated by Hoechst or Mitotracker fluorescence. The geometric mean of fluorescence intensity (mean fluorescence intensity, MFI) and/or the percentage of each population (e.g. Hoechst positive) was calculated with FlowJo. Background fluorescence was subtracted based on unstained controls (buffer or solvent only). Except where otherwise specified, MFI data was normalised between experiments by setting the fluorescence of untreated uRBCs to 1.
Ring-stage parasites at 4% parasitaemia and 2% haematocrit were incubated with 2.02 uM cholesterol analogues or solvent controls in cholesterol-depleted media for 24 hours at 37° C. under microaerophilic conditions. […] Samples were read on a flow cytometer or imaged with fluorescence microscopy as described above. […]

[4] = tested on: Leishmania tarentolae; test: Leishmania tarentolae growth inhibition; type: cell-based; conditions: 72 hours, FIG. 22
[5] = tested on: P. falciparum infected red blood cells (iRBC) vs uninfected red blood cells (uRBC); test: Uptake and cleavage of steroid-resorufin conjugate in iRBCs vs uRBCs; type: cell-based, Plasmodium falciparum; conditions: steroid-resorufin conjugate (PAYb193), FIG. 10A
Description: Images were collected and deconvoluted on a Deltavision Deconvolution microscope at 1000× magnification, with a resolution of 0.067 μm per pixel. NBD and BODIPY fluorescence were detected at 475/28 nm excitation and 525/48 nm emission. Hoechst fluorescence (nucleic acid) was detected at 390/18 nm and ex/435/48 nm em. Resorufin fluorescence was detected at 575/25 nm ex and 626/45 nm em.
as §2, §3

[6] = tested on: asexual P. falciparum; test: Plasmodium growth inhibition assay (SYBR Safe), asexual stages; type: cell-based, Plasmodium falciparum; conditions: 72 hrs, FIG. 10B
Description: Compounds or solvent controls (DMSO, ethanol, or ethyl acetate) were serially diluted 2-fold across flat-bottom 96-well plates. Complete culture media without compound was used as a negative control. Chloroquine (100-200 nM) {Sigma C6628} was used as a positive control to determine background fluorescence. The parasitaemia of a culture containing predominantly ring stage parasites was counted by Giemsa smear. The parasitaemia was adjusted to 1% by addition of fresh uRBCs, and added to the plate at a final haematocrit of 1%, with 200 μL per well. The plates were incubated at 37° C. under humid microaerophilic conditions. […] Fluorescence was read at 490 nm excitation/520 nm emission on a FLUOstar Optima fluorescence plate reader {BMG Labtech}.
Growth inhibition data were normalised by subtracting background fluorescence from a no-growth control (high drug concentration or time=0 measurement as specified), and expressed as a percentage of the growth in the negative control (media alone or solvent control) either at the indicated timepoint, or to the highest measurement reached during the assay.
P. falciparum asexual parasite assays begun with ring-stage parasites at 1% parasitaemia and 1% haematocrit. 200 nM chloroquine (Sigma C6628) was used as a no-growth control. […] 17]; 8 (2):e54974).
(§4) Growth inhibition data were normalised by subtracting background fluorescence, luminescence, absorbance, or percentage of cells from a no-growth or no-viability control (high drug concentration, no-parasite control, or time=0 measurement as specified), and expressed as a percentage of the growth or cell percentage in the negative control (culture media alone or solvent control) at the indicated timepoint (or to the highest measurement reached during the assay for FIG. 15B).

[7] = tested on: human foreskin fibroblasts (HFF); test: HFF growth inhibition assay (SYBR Safe); type: cell-based; conditions: 72 hrs
Description: Cells were incubated with a serial dilution of each compound, or media/DMSO alone. The protein synthesis inhibitor cycloheximide (10 μg/mL) was used as a positive control to determine background fluorescence. Approximately 5000 cells were seeded in each well. […] Plates were transferred to a −18° C. freezer. […] Fluorescence was read at 490 nm excitation/520 nm emission on a FLUOstar Optima fluorescence plate reader.
HFF cell growth inhibition assays began with 5000 cells per well. 10 μg/mL cycloheximide was used as a no-growth control.

[8] = tested on: P. falciparum gametocytes (stage III-IV); test: Gametocyte viability assay (MitoTracker, flow cytometry); type: cell-based, Plasmodium falciparum; conditions: FIG. 9C
Text: Gametocyte assays begun eight days post-invasion (Stage III-IV).
as §4

[9] = tested on: chloroquine sensitive P. falciparum strains 3D7 and C2_GC03; test: Growth inhibition of chloroquine sensitive P. falciparum strains; type: cell-based, Plasmodium falciparum; conditions: FIG. 21B/21C
Description: as §1

CCN(CCCC(C)Nc1ccnc2cc(Cl)ccc12)CCOC(=O)CCC(=O)O[C@H]1CC[C@H]2[C@@H]3CC=C4C[C@@H](O)CC[C@]4(C)[C@H]3CC[C@]12C (stereo partly shown) [hydroxychloroquine-steroid conjugate]
Times more effective at killing resistant parasites than hydroxychloroquine [1]: 2.6 fold | IC50 at 72 h [2]: 13 µM

CC1=CC(C)=[N+]2C1=C(CC[C@@H](C)[C@H]1CC[C@H]3[C@@H]4CC=C5C[C@@H](O)CC[C@]5(C)[C@H]4CC[C@]13C)c1c(C)cc(C)n1[B-]2(F)F [24-BODIPY-cholesterol]
Uptake in iRBC compared to uRBC (fold change of fluorescence) [3]: seems to get stuck at the RBC membrane

CC(C)(C)OOCCO[C@H]1CC[C@H]2[C@@H]3CC=C4C[C@@H](O)CC[C@]4(C)[C@H]3CC[C@]12C [BC86D]
IC50 ([4]; Leishmania tarentolae, read-out: IC50): < 1 µM

C[C@]12CC[C@H]3[C@@H](CC=C4C[C@@H](O)CC[C@@]43C)[C@@H]1CC[C@@H]2OC(=O)CCC(=O)OCOc1ccc2nc3ccc(=O)cc-3oc2c1 [steroid-resorufin conjugate, 3β-Hydroxyandrost-5-en-17β-yl succinate-(hydroxymethoxy)-resorufin ester]
Uptake of the probe, iRBCs vs uRBCs [5]: approximately 2 fold

CC12CCC(O)CC1=CCC1C2CCC2(C)C(OC(=O)CCC(=O)OCOc3ccc4nc5ccc(=O)cc-5oc4c3)CCC12 (stereo not drawn) [Payb193, 3β-hydroxyandrost-5-en-17β-yl succinate-(hydroxymethoxy)-resorufin ester]
Killing of the parasite compared with uncoupled resorufin (dose-response curve) [6]: can kill the parasite at lower concentrations than the uncoupled resorufin base molecule | Uptake of the probe, iRBCs vs uRBCs [5]: approximately 2 fold

COc1cc(NC(C)CCCNC(=O)CCC(=O)O[C@H]2CC[C@H]3[C@@H]4CC=C5C[C@@H](O)CC[C@]5(C)[C@H]4CC[C@]23C)c2ncccc2c1 (stereo partly shown) [BC5B]
IC50 [4]: higher efficacy than primaquine | Maximal inhibition of HFF growth at the range of concentrations tested [7]: ≤ 50% | Susceptibility of early (I-III) and late stage (III-IV) gametocytes [8]: both early (A) and late-stage (B) gametocytes are equally susceptible

CCN(CCO)CCCC(C)Nc1ccnc2cc(Cl)ccc12 (stereo not shown) [hydroxychloroquine, reference compound]
Fold better efficacy than hydroxychloroquine-steroid conjugates [9]: 1.4-1.6 fold | IC50 at 72 h ([2]; HEK293 cells): 38.4 µM

CC(C)CCC[C@@H](C)[C@H]1CC[C@H]2[C@@H]3CC=C4C[C@@H](OC(=O)CCCCCNc5ccc([N+](=O)[O-])c6nonc56)CC[C@]4(C)[C@H]3CC[C@]12C [3-hexanoyl-NBD-cholesterol]
Uptake in iRBC compared to uRBC (fold change of fluorescence) [3]: not significantly different
